In article PMC8362065, “Easily Available, Amphiphilic Diiron Cyclopentadienyl Complexes Exhibit in Vitro Anticancer Activity in 2D and 3D Human Cancer Cells through Redox Modulation Triggered by CO Release” (Chemistry (Weinheim an Der Bergstrasse, Germany), 2021):

Experiments:
[1] = Carbon monoxide release in 5 % MeOH aqueous solution, headspace GC-TCD; format: physicochemical; details: 37 °C; for eq. CO released: eqCO = nCO/nFe; for % residual complex: 48 h, calculated as [1 – Σ(eqCO)/3]∙100
Description: Carbon monoxide release. A stock solution was prepared by dissolving the selected Fe compound (ca. 10 mg) in MeOH (0.50 mL) then diluting with H2O up to 10.0 mL total volume (5 % v/v MeOH). Next, 3.20 mL of the solution (n Fe ca. 6 ⋅ 10^−3 mmol) and a 7x2 mm stir bar were transferred into a 4‐mL screw top vial (1.72 mL neat gas phase volume). The mixture was sealed with a screw cap with a PTFE/silicone septum and heated at 37 °C for 24 h under stirring. Afterwards, the headspace was sampled with a gas tight microsyringe ([…]) and analysed by GC‐TCD. Therefore, the vial was vented, sealed and heated for further 24 h, and GC‐TCD analysis was repeated. The amount of released CO (νCO, mmol) was calculated based on a calibration curve obtained from analyses of known air/CO mixtures (1–10 % v/v), and the number of equivalents released over a 24 h period refers to the initial amount of compound (eqCO=n CO/n Fe). The residual amount of starting diiron complex after 48 h was calculated by assuming the release of 3 equivalents of CO per mole and the total amount of CO released.

[2] = tested on: human cancer cell line panel (2008, HCT‐15, PSN‐1, MCF‐7, A375); test: MTT assay, average over the human cancer cell line panel; format: cell-based; details: average over tested cancer cell lines, 72 h
Description: The diiron complexes [2A]^+, [2C–E]^+, [3F–G]^+, [5H]^+ (as CF3SO3 salts) and [2B]^+, [4G]^+ (as BF4 salts) were tested for their cytotoxic potential by means of the MTT assay, as reported in the Experimental Section. The most convenient counter anion in terms of preparation and handling/storage was chosen in each case; in particular, [2C]CF3SO3 was included in the study, while [2C]Cl was excluded, being highly moisture sensitive and thus affecting the accuracy of the weighting operation. The in‐house human cancer cell line panel contains examples of ovarian (2008), colon (HCT‐15), pancreatic (PSN‐1), and breast (MCF‐7) cancers as well as of melanoma (A375). Cisplatin was used as a reference and tested under the same experimental conditions. In addition, the cytotoxicity was also evaluated for shorter time of exposure (24 h) towards PSN‐1 cancer cells (Table S5).
MTT assay. The growth inhibitory effect towards tumour cells was evaluated by means of MTT assay as previously described.[57] Briefly, 3–8×10^3 cells/well, dependent upon the growth characteristics of the cell line, were seeded in 96‐well microplates in growth medium (100 μL). After 24 h, the medium was removed and replaced with a fresh one containing the compound to be studied at the appropriate concentration. Triplicate cultures were established for each treatment. After 24 or 72 h, each well was treated with 10 μL of a 5 mg/mL MTT saline solution, and following 5 h of incubation, 100 μL of a sodium dodecyl sulfate (SDS) solution in HCl 0.01 M were added. After an overnight incubation, cell growth inhibition was detected by measuring the absorbance of each well at 570 nm using a Bio‐Rad 680 microplate reader. Mean absorbance for each drug dose was expressed as a percentage of the control untreated well absorbance and plotted against drug concentration. IC50 values, the drug concentrations that reduce the mean absorbance at 570 nm to 50 % of those in the untreated control wells, were calculated by the four‐parameter logistic (4‐PL) model. Evaluation was based on means from at least four independent experiments.

PSN‐1 cells = test: ROS production, CM-H2DCFDA fluorescence; format: cell-based, human; details: time-dependent (Figure 5A)
Description: Iron is a redox active metal that can generate ROS in cells via the Fenton reaction, thus inducing cellular damage and ultimately leading to cell death.[40] […] Based on this premises, we evaluated the effects induced by the diiron complexes on the mitochondria activity and the cellular redox environment. More precisely, we investigated the ROS production and the alteration of the mitochondrial membrane potential. […] The time‐dependent ROS basal production is probably associated to more than one phenomenon. First of all, the progressive disruption of the diiron structure leads to the extrusion of the Fe^I centres, which are expected to subsequently convert into Fe^III (in fact, slow precipitation of iron(III) oxides has been recognized from water solution, see above). […]
Figure 5 Effects induced by compounds [2C]CF3SO3 and [2D]CF3SO3 at the mitochondrial level. […] The fluorescence of DCF was measured at λ ex=485 nm and λ em=527 nm. […] Fluorescence was estimated at λ ex=490 nm and λ em=590 nm. […]
ROS production. The production of ROS was measured in PSN‐1 cells (10^4 per well) grown for 24 h in a 96‐well plate in RPMI medium without phenol red (Merck). […] Fluorescence increase was estimated by using λ ex=485 nm and λ em=527 nm in a VICTOR X3 (PerkinElmer) plate reader. […]

[3] = tested on: thioredoxin reductase (TrxR); details: cell-free experiment (data not shown)
Description: It has recently emerged that the redox stress induced by some iron complexes might also be attributed to their ability to inhibit the selenoenzyme thioredoxin reductase (TrxR).

Row | Substance | eq. CO released ([1]; 0-24 h) | eq. CO released ([1]; 24-48 h) | % residual complex [1] | IC50 [2] | Cellular ROS production (PSN‐1 cells) | TrxR inhibition [3]
1 | [Fe2Cp2(CO)2(μ‐CO){μ‐CNBn2}]X [[5H]CF3SO3] | 0.29 ± 0.06 eq. | 0.27 ± 0.02 eq. | 80-84% | – | – | –
2 | [Fe2Cp2(CO)2(μ‐CO){μ‐CNMe(4‐C6H4OMe)}]CF3SO3 [[2D]CF3SO3] | – | – | – | 16.6 µM | substantial increase in cellular ROS production | completely ineffective
3 | [Fe2Cp2(CO)2(μ‐CO){μ‐CNMe(C6H11)}]X [[2C]CF3SO3] | 0.25 ± 0.02 eq. | 0.23 ± 0.04 eq. | 83-86% | 17.4 µM | substantial increase in cellular ROS production | completely ineffective
4 | [Fe2Cp2(CO)2(μ‐CO){μ‐CNMe(CH2CHCH2)}]X [[3F]CF3SO3] | 0.22 ± 0.06 eq. | 0.15 ± 0.01 eq. | 87-88% | > 100 µM | – | –
5 | [Fe2Cp2(CO)2(μ‐CO){μ‐CNMe(CH2PO3Et2)}]X [[2B]BF4] | – | – | – | > 100 µM | – | –
